Here are results for 4 molecules from US8058510B2, “Method and means to modulate programmed cell death in eukaryotic cells” (Bayer Bioscience N.V., priority 1998, dated 2011).

Entries after “also recorded” stand apart in the source; their conditions may differ.

For one assay, the system named is tobacco. The note with it: Puchta et al., 1995; cited from earlier work.
The subject of assay [1] is differentiating cells of Zinnia or of Helianthus tuberosum. Particulars: literature; cited from earlier work.
Assay [2] addresses T1, APP (Arabidopsis thaliana, UniProt Q11207). Nature of the assay: Poly(ADP-ribose) polymerase activity assay in total protein extracts of yeast expressing APP.
The target in assay [3] is T1, APP. Nature of the assay: In situ detection of poly(ADP-ribose) polymer with 10H monoclonal antibody in yeast spheroplasts expressing APP. Format: cell-based. Also noted: The full-length app cDNA was placed in pYeDP1/8-2 under the control of a galactose-inducible yeast promoter; expressed in transfected cells; host or cells: Saccharomyces cerevisiae strain DY transformed with pV8SPA, grown on galactose. Particulars: DY(pV8SPA) cells grown on galactose in the presence of the inhibitor. Here is the method:
In situ antigen localization in yeast cells was carried out as described (Harlow and Lane, 1988). For the localization of the APP protein in yeast spheroplasts, anti-APP serum was diluted 1:3,000 to 1:5,000 in Tris-buffered saline-BSA buffer. 10H monoclonal antibody, which specifically recognizes poly(ADP-ribose) polymer (Ikajima et al., 1990) was used in a 1:100 dilution in PBS buffer. The mouse antibody were detected with the sheep anti-mouse IgG F(ab′)2 fragment conjugated to fluorescein isothiocyanate (FITC) (Sigma) at a dilution of 1:200. Rabbit IgG was detected with CY-3 conjugated sheep anti-rabbit IgG sheep F(ab)2 fragment (Sigma), at a dilution of 1:200. For the visualization of DNA, slides were incubated for 1 min in PBS with 10 μg ml^−1 of 4′,6-diamidino-2-phenylindole (DAPI; Sigma). Fluorescence imaging was performed on an Axioskop epifluorescence microscope (Zeiss, Jena, Germany). For observation of FITC and CY-3 fluorochromes, 23 and 15 filter cubes were used, respectively. Cells were photographed with Fuji Color-100 super plus film.
In addition, we tested whether APP was constitutively active in yeast cells, as has been reported for the human PARP (Collinge and Althaus, 1994). […] A positive yellowish-green fluorescence signal with 10H antibody was localized in the nucleus and was observed only in DY(pV8SPA) cells grown on galactose.

The subject of assay [4] is Arabidopsis shoots (C24; Columbia). As to the kind of experiment: Fitness assay Arabidopsis (TTC-assay). In kind it is in vivo. The note with it: 2 mM niacinamide in incubation medium, about 20 hours; lines C24 and Columbia.

As to `NC(=O)c1cccc(N)c1` [3ABA, 3-aminobenzamide], the “rates of homologous intrachromosomal recombination” value in the assay with tobacco is on record as “increased”. In assay [1], the “development of tracheary elements” value is “prevent development of tracheary elements”. Besides, the “synthesis of poly(ADP-ribose)” value on APP [2] (3ABA 3 mM in the reaction mix, nucleic acid depleted DY(pV8SPA) extract, FIG. 5B lane 5) is “sensitive; also recorded: blocked”. Further, on APP [2] (yeast strain grown with 3ABA (3 mM) versus without, 3ABA removed from extracts during desalting, FIG. 5A lane 1 vs 2), the “radioactivity incorporated into polymer” value is given as “More radioactivity was incorporated into polymer”. Further, at APP [3], the “positive staining with 10H antibody (poly(ADP-ribose) polymers) in the nucleus” value is “greatly reduced”.
Regarding `O=c1[nH]c2ccccc2c2ccccc12` [6(5H)-phenasthridinone], the “development of tracheary elements” value in assay [1] was “prevent development of tracheary elements”.
With `NC(=O)c1cccnc1` [nicotinamide], the TTC-reducing capacity entry in assay [4] is reported as “higher TTC-reducing capacity”. Also, in assay [1], the “development of tracheary elements” value is on record as “prevent development of tracheary elements”. The “positive staining with 10H antibody (poly(ADP-ribose) polymers) in the nucleus” value at APP [3] was “greatly reduced”.

B1: APP: NAP protein of Arabidopsis thaliana (SEQ ID No 6), non-conventional PARP, expressed in yeast (protein, listed as Arabidopsis thaliana)
chain: MANKLKVDELRLKLAERGLSTTGVKAVLVERLEEAIAEDTKKEESKSKRKRNSSNDTYESNKLIAIGEFRGMIVKELREEAIKRGLDTTGTKKDLLERLCNDANNVSNAPVKSSNGTDEAEDDNNGFEEEKKEEKIVTATKKGAAVLDQWIPDEIKSQYHVLQRGDDVYDAILNQTNVRDNNNKFFVLQVLESDSKKTYMVYTRWGRVGVKGQSKLDGPYDSWDRAIEIFTNKFNDKTKNYWSDRKEFIPHPKSYTWLEMDYGKEENDSPVNNDIPSSSSEVKPEQSKLDTRVAKFISLICNVSMMAQHMMEIGYNANKLPLGKISKSTISKGYEVLKRISEVIDRYDRTRLEELSGEFYTVIPHDFGFKKMSQFVIDTPQKLKQKIEMVEALGEIELATKLLSVDPGLQDDPLYYHYQQLNCGLTPVGNDSEEFSMVANYMENTHAKTHSGYTVEIAQLFRASRAVEADRFQQFSSSKNRMLLWHGSRLTNWAGILSQGLRIAPPEAPVTGYMFGKGVYFADMFSKSANYCYANTGANDGVLLLCEVALGDMNELLYSDYNADNLPPGKLSTKGVGKTAPNPSEAQTLEDGVVVPLGKPVERSCSKGMLLYNEYIVYNVEQIKMRYVIQVKFNYKH
With B1, in the assay with APP [2] (sonicated salmon sperm DNA, phosphor-image scanning, FIG. 5B lanes 4 and 2), the “radioactivity incorporated into poly(ADP-ribose), 40 μg/ml DNA versus 2 μg/ml DNA” value is ~6 fold.
